Results as given in patent US5968978A, “Biphenylsulfonylcyanamides, process for their preparation, and their use as medicament” (Hoechst Marion Roussel Deutschland, priority 1997, dated 1999).

The compounds below were run on Na+-dependent Cl-/HCO3- exchanger (NCBE) (assay: Inhibition of the Na+-dependent Cl-/HCO3- exchanger (NCBE) in human endothelial cells (FLIPR, BCECF pHi recovery)). Conditions: inhibitor concentration of 10 μM; human endothelial cells (ECV-304); 50 μM HOE 642 present.
Type: cell-based
Protocol: Inhibition of the Na^+ -dependent Cl^- /HCO3^- exchanger (NCBE) in human endothelial cells
Human endothelial cells (ECV-304) were detached from culture flasks with the aid of trypsin/EDTA buffer (0.05/0.02% in phosphate buffer) and, after centrifugation (100 g, 5 min), taken up in a buffered salt solution (mmol/l: 115 NaCl, 20 NH4 Cl, 5 KCl, 1 CaCl2, 1 MgSO4, 20 N-(2-hydroxyethyl)-piperazine-N'-2-ethanesulfonic acid (HEPES), 5 glucose and 1 g/l of bovine serumalbumin; pH 7.4). This cell suspension was incubated at 37° C. for 20 min with 5 μM BCECF acetoxymethyl ester. The cells were then washed and resuspended in a sodium- and bicarbonate-free buffer solution (mmol/l: 5 HEPES, 133.8 choline chloride, 4.7 KCl, 1.25 MgCl2, 0.97 K2 HPO4, 0.23 KH2 PO4, 5 glucose; pH 7.4).
The subsequent fluorescence measurement in the FLIPR (Fluorescent Imaging Plate Reader), 100 μl of this cell suspension in each case containing 20000 cells were added by pipette per well of a 96-well microtiter plate and this microtiter plate was centrifuged (100 g, 5 min).
In the FLIPR, 100 μl of buffer solution in each case were then removed from a further prepared microtiter plate and added by pipette to each of the 96 wells of the measuring plate. In this case, for a 100% control, i.e. a recovery of the intracellular pH (pHi) by means of the NCBE, a bicarbonate- and sodium-containing buffer solution (mmol/l: 5 HEPES, 93.8 NaCl, 40 NaHCO3, 4.7 KCl, 1.25 CaCl2, 1.25 MgCl2, 0.97 Na2 HPO4, 0.23 NaH2 PO4, 5 glucose; pH 7.4) which contained 50 μM HOE 642 was used. For a 0% control, i.e. no pHi recovery at all, a bicarbonate-free, sodium-containing buffer solution (mmol/l: 5 HEPES, 133.8 NaCl, 4.7 KCl, 1.25 CaCl2, 1.25 MgCl2, 0.97 Na2 HPO4, 0.23 NaH2 PO4, 5 glucose; pH 7.4) to which 50 μM HOE 642 were also added was employed. The compounds of the formula (I) according to the invention were added in various concentrations of the sodium- and bicarbonate-containing solution.
After addition of the buffer solutions to the dye-loaded acidified cells situated in the measuring plate,the increase in the fluorescence intensity which corresponded to an increase in the pHi was determined in each well of the microtiter plate. The kinetics were in this case recorded at 35° C. over a period of 2 minutes.
The increase in the fluorescence intensities for different concentrations of the compounds according to the invention was related to the two controls and from this the inhibitory action of the substances was determined.
`N#CNS(=O)(=O)c1ccccc1-c1ccc(C=C2CCCCC2)cc1` [Example 1, 4'-Cyclohexylidenemethylbiphenyl-2-sulfonylcyanamide] was tested, and the “Residual activity of the NCBE” value was 68.4%.
`N#CNS(=O)(=O)c1ccccc1-c1ccc(CC2CCCCC2)cc1` [Example 2, 4'-Cyclohexylmethylbiphenyl-2-sulfonylcyanamide] was tested, and the “Residual activity of the NCBE” value was 51.6%.
`N#CNS(=O)(=O)c1ccccc1-c1ccc(C=C2CCCC2)cc1` [Example 3, 4'-Cyclopentylidenemethylbiphenyl-2-sulfonylcyanamide] was tested, and the “Residual activity of the NCBE” value was 29.4%.
`N#CNS(=O)(=O)c1ccccc1-c1ccc(C=C2CCCCCC2)cc1` [Example 4, 4'-Cycloheptylidenemethylbiphenyl-2-sulfonylcyanamide] was tested, and the “Residual activity of the NCBE” value was 30.5%.
With `N#CNS(=O)(=O)c1ccccc1-c1ccc(/C=C\c2ccccc2)cc1` [Example 5, cis-4'-Styrylbiphenyl-2-sulfonylcyanamide] the “Residual activity of the NCBE” value was 21.2%.
For `N#CNS(=O)(=O)c1ccccc1-c1ccc(/C=C/c2ccccc2)cc1` [Example 6, trans-4'-Styrylbiphenyl-2-sulfonylcyanamide], the “Residual activity of the NCBE” value was 19.3%.
With `N#CNS(=O)(=O)c1ccccc1-c1ccc(CCc2ccccc2)cc1` [Example 7, 4'-Phenethylbiphenyl-2-sulfonylcyanamide] the “Residual activity of the NCBE” value was 64.2%.
For `N#CNS(=O)(=O)c1ccccc1-c1ccc(/C=C\C2CCCCC2)cc1` [Example 8, cis-4'-(2-Cyclohexylvinyl)biphenyl-2-sulfonylcyanamide], the “Residual activity of the NCBE” value was 13.4%.
With `N#CNS(=O)(=O)c1ccccc1-c1ccc(/C=C/C2CCCCC2)cc1` [Example 9, trans-4'-(2-Cyclohexylvinyl)biphenyl-2-sulfonylcyanamide] the “Residual activity of the NCBE” value was 12.8%.
For `N#CNS(=O)(=O)c1ccccc1-c1ccc(CCC2CCCCC2)cc1` [Example 10, 4'-(2-Cyclohexylethyl)biphenyl-2-sulfonylcyanamide], the “Residual activity of the NCBE” value was 24.3%.
